Results published in publication PMC11439681, “The identification of potent dual-target monopolar spindle 1 (MPS1) and histone deacetylase 8 (HDAC8) inhibitors through pharmacophore modeling, molecular docking, molecular dynamics simulations, and biological evaluation” (Frontiers in Pharmacology, 2024).

Columns and labels:
[1] = target: T1, SRC (Homo sapiens, UniProt P12931); assay: In vitro selectivity assay; type: biochemical; details: selectivity panel
T1 construct: ICE Bioscience Inc. (contract assay provider)
T1 sequence (P12931 whole entry): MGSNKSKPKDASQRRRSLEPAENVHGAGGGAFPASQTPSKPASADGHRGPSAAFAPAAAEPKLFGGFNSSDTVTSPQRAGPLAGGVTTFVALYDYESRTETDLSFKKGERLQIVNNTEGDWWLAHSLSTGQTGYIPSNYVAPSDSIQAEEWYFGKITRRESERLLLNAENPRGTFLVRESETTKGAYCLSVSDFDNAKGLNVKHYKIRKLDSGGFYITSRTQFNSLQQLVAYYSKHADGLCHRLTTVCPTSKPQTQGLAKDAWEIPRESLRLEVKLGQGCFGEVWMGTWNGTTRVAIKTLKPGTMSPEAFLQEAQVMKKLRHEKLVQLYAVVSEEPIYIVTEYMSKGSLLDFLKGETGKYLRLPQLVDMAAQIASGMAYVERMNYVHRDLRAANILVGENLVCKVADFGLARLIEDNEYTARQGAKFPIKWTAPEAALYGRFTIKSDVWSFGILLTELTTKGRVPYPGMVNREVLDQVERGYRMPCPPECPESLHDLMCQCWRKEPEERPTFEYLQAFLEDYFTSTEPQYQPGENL
Experimental: (§1) The inhibitory effects of compound MPH-5 on a panel of 68 kinases and other histone deacetylases were evaluated to assess the selectivity profile of MPH-5. This experiment was conducted by ICE Bioscience Inc. (Beijing, China).

[2] = target: T2, HDAC3 (Homo sapiens, UniProt O15379); assay: In vitro selectivity assay; type: biochemical; details: selectivity panel
T2 construct: ICE Bioscience Inc. (contract assay provider)
T2 sequence (O15379 whole entry): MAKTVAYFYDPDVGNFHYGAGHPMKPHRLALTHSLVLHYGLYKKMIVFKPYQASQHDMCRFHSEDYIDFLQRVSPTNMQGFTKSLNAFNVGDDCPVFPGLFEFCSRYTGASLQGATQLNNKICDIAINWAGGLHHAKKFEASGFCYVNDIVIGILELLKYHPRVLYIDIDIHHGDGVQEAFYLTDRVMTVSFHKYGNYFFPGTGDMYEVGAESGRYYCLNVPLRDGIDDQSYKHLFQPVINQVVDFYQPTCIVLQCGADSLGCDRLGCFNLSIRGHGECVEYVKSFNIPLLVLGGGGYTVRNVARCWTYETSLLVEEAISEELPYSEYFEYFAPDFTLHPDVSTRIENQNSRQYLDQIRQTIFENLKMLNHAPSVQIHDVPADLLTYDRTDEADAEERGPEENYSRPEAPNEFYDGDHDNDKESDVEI
T2 sequence (Q9Y618 395-489 partner limits assumed): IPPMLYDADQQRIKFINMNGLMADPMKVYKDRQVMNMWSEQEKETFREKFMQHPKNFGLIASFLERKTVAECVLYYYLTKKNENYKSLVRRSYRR
Experimental: as §1

[3] = target: ROS1 (Homo sapiens, UniProt P08922); assay: In vitro selectivity assay; type: biochemical; details: selectivity panel
Sequence of ROS1 (P08922 28-2347): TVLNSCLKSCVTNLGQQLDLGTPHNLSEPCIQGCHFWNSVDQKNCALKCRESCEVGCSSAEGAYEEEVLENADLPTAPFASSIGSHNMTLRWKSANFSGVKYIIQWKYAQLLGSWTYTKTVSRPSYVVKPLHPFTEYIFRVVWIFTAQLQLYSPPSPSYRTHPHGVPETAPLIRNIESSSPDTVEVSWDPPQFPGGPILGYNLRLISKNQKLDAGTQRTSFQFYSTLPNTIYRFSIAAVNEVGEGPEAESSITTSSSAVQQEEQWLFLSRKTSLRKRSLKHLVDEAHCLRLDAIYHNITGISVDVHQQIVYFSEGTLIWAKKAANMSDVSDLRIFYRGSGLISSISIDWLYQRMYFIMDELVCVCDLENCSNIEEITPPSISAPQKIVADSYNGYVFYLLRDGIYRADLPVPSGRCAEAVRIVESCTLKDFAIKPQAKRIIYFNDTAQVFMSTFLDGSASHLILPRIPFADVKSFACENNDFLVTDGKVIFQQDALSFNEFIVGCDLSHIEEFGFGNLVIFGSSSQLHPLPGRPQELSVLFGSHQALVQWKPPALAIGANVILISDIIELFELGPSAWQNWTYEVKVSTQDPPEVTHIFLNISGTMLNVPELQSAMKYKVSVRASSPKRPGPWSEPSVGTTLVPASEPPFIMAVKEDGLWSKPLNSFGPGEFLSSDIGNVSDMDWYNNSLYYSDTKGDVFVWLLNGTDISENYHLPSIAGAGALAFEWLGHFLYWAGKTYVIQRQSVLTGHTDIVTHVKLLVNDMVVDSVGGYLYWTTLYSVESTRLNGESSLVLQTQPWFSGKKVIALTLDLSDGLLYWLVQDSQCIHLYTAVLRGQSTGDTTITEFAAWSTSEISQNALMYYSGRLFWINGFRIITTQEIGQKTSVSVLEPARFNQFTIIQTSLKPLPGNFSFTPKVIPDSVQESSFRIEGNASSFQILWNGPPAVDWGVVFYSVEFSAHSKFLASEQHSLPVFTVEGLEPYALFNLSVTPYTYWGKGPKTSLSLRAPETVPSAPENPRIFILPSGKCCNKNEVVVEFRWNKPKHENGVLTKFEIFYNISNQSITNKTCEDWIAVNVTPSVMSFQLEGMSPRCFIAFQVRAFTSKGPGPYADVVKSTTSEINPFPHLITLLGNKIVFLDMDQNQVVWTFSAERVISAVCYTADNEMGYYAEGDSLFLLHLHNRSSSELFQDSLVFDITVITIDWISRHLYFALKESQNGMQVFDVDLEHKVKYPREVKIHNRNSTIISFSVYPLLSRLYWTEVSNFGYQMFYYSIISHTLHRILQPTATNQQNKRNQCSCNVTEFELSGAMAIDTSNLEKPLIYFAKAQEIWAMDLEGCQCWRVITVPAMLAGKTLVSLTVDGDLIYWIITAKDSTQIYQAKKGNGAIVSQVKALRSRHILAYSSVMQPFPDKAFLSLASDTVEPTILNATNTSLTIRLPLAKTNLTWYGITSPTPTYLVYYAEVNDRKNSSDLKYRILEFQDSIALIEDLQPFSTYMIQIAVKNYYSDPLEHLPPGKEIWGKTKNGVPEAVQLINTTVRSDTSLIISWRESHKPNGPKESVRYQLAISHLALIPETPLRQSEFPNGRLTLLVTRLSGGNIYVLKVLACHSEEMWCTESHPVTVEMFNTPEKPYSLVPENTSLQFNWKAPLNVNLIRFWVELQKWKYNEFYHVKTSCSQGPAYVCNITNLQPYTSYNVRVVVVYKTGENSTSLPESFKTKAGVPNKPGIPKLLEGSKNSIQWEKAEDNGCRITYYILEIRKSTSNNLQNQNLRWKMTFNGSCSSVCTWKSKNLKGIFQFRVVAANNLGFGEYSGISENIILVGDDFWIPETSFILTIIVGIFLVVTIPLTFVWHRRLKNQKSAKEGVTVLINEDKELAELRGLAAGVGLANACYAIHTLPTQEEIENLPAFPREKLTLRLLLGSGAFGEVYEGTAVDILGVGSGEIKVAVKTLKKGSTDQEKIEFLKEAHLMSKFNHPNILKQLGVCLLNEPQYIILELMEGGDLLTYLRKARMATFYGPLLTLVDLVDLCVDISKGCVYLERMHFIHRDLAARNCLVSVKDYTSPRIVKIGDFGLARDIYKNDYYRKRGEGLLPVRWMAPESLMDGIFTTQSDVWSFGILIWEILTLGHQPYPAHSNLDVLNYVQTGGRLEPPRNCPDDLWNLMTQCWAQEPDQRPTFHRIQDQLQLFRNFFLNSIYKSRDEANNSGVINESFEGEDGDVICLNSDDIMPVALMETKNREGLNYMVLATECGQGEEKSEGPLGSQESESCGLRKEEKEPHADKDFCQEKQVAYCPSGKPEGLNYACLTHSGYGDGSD
Experimental: as §1

[4] = test system: Ace-K62 of PKM2; assay: Gene expression analysis of Ace-K62 of PKM2 in HepG2 cells; type: cell-based, human; details: 20 h, 0.25, 1 and 5 μM
Experimental: Total RNA was extracted after the indicated treatments using the RNeasy Mini Kit (cat. no. 74106; QIAGEN, Hilden, Germany) following the manufacturer’s protocol. The concentration of RNA was measured on a plate reader, and then the extracted RNA was converted to cDNA using a High-Capacity RNA-to-cDNA kit from Applied Biosystems (Thermo Fisher Scientific, Inc.). Quantitative real-time polymerase chain reaction was performed in triplicate in a 96-well optical PCR plate using a QuantStudio Real-Time PCR System. Gene expression levels were evaluated using the comparative CT method. Graphical representations of the data were generated by GraphPad Prism 8.
Previous studies indicate that MPS1 inhibitor exerts its antitumor effects by downregulating the levels of phosphorylated histone H3 ([Naud et al., 2013]), while HDAC8 inhibitor achieves its antitumor activity by upregulating lysine residue 62 acetylation (Ace-K62) levels of pyruvate kinase M2 (PKM2) ([Zhang et al., 2020]). The gene expression of P-histone H3 and Ace-K62 was detected in HepG2 cells with the treatment of MPH-5 for 20 h (at the concentration of 0, 0.25, 1, and 5 μM, respectively). […] As the concentration of MPH-5 increases, the inhibitory effect on P-histone H3 and the promotional effect on Ace-K62 become more pronounced.

[5] = test system: BEAS-2B; assay: MTT cytotoxicity assay, BEAS-2B normal cells; type: cell-based; details: Homo sapiens, 72 h cell treatment
Experimental: (§2) The cells (5 × 10^4 cells/well) were incubated overnight in 96-well plates. A series of solutions containing varying concentrations of inhibitors were added and incubated at 37°C for a period of 72 h. Subsequently, the culture medium was removed, followed by a subsequent incubation of the cells with a 5 mg/mL MTT stock solution for 4 h. After centrifugation, the precipitate was solubilized in DMSO and gently shaken for 15 min. Finally, the absorbance measurement at 570 nm was completed using a microplate reader. Data analysis was performed using GraphPad Prism 6.0 software.

[6] = test system: Li-7; assay: MTT cytotoxicity assay, Li-7; type: cell-based; details: Homo sapiens, 72 h cell treatment
Experimental: as §2

[7] = test system: panel of 68 kinases and other histone deacetylases; assay: In vitro selectivity assay, whole panel; type: biochemical; details: read-out: IC50 on these kinases and other histone deacetylases
Experimental: as §1

[8] = test system: MCF10A; assay: MTT cytotoxicity assay, MCF10A normal cells; type: cell-based; details: Homo sapiens, MCF-10A, 72 h cell treatment
Experimental: as §2

[9] = test system: HepG2 xenograft tumor; assay: In vivo antitumor assay, HepG2 xenograft model; design: species or system BALB/c mice; details: i.p., 1, 5 and 10 mg/kg
Experimental: Male BALB/c mice (6 weeks old) were purchased from Changzhou Cavens Experimental Animal Limited Company (Changzhou, China). The xenograft model was established by subcutaneous injection of a suspension of HepG2 human liver cancer cells in PBS (200 μL, 1 × 10^7 cells) into the mice. The mice were randomized into four groups and received intraperitoneal injections of vehicle or MPH-5 at concentrations of 1, 5 and 10 mg/kg. Tumor volume was measured at 3-day intervals and calculated as follows: (c × c × d)/2 (c, the smallest diameter; d, the largest diameter). The experiments involving animals were approved by the Ethics Committee of China Pharmaceutical University.

[10] = target: T3, MPS1 (Homo sapiens, UniProt P33981); assay: In vitro MPS1 inhibitory assay; type: biochemical
T3 construct: purchased Abcam
T3 sequence (P33981 1-857): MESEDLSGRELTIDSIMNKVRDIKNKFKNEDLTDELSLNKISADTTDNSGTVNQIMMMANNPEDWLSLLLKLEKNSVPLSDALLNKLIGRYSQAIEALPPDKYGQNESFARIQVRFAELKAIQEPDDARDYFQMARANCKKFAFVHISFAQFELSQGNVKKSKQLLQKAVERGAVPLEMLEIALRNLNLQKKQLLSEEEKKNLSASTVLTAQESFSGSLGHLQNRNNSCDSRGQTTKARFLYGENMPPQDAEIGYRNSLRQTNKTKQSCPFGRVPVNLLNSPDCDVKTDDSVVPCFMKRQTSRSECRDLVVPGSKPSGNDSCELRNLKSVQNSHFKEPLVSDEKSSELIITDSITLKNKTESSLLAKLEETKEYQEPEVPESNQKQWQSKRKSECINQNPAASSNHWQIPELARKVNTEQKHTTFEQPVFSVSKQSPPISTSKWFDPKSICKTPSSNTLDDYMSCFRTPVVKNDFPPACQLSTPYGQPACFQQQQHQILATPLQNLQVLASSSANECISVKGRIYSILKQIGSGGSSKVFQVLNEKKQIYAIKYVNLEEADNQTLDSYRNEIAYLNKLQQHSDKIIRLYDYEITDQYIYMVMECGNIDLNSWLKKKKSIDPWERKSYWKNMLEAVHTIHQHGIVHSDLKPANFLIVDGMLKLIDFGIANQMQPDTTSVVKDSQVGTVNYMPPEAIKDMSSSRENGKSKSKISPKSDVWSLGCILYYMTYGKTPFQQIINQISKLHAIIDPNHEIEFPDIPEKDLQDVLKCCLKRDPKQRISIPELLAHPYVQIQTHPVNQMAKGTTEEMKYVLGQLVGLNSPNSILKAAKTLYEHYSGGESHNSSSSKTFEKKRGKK
Experimental: The methodology is as previously described ([Naud et al., 2013]). In brief, the experiment was conducted using 384-well black low-volume plates, which were loaded with MPS1 (concentration range of 3–12.5 nM), 5 μM fluorescence-labelled peptide (sequence: 5FAM-[…]-CONH2), 10 μM ATP, 1% (v/v) DMSO or the test compound (concentrations in 1% (v/v) DMSO ranged from 0.25 to 100 μM), and assay buffer. […]. The plate was read on a Caliper EZ reader II (PerkinElmer Life Sciences, Waltham, MA, United States). […]

SMILES: Cn1cc(-c2cc3cnc(Nc4ccc(-c5cncn5/C=C/C(=O)NO)cc4Cl)cc3n2C(=O)OC(C)(C)C)cn1 [MPH-5]
- IC50 [1]: > 10 µM
- IC50 [2]: > 10 µM
- IC50 [3]: > 10 µM
- K62 acetylation levels (Ace-K62 of PKM2) [4]: dose-dependent regulation
- IC50 [5]: > 10 µM
- IC50 [6]: 0.64 µM
- IC50 [7]: > 10 µM
- IC50 [8]: > 10 µM
- body weight change ([9]; HepG2 xenograft mice): did not induce any significant body weight change
- tumor growth (tumor volume) ([9]; HepG2 xenograft, vs vehicle): significantly and dose-dependently inhibited the tumor growth
- IC50 [10]: 0.00452 ± 0.00021 µM
- MPS1 IC50 of MPH-5 relative to AZ3146 ([10]; vs AZ3146): about 8 fold
